Legend:
[1] = target: Muscarinic acetylcholine receptor M2 (Homo sapiens) (UniProt P08172); assay: Displacement of [3H]AF-DX 384 from recombinant human M2 receptor at 10 uM after 60 mins by radiometric scintillation analysis relative to control
[2] = target: Prostaglandin E2 receptor EP4 subtype (Homo sapiens) (UniProt P35408); assay: Displacement of [3H]PGE2 from recombinant human EP4 receptor at 10 uM after 120 mins by radiometric scintillation analysis relative to control
[3] = target: Adrenergic receptor alpha-1 (Rattus norvegicus) (UniProt P15823+P23944+P43140); assay: Displacement of [3H]prazosin from rat brain alpha 1 receptor at 10 uM after 60 mins by radiometric scintillation analysis relative to control
[4] = Mutagenicity in Salmonella typhimurium TA100 at 100 ug/plate preincubated for 20 mins followed by addition of top agar and measured after 48 hrs by Ames test; assay type: toxicity; conditions: salmonella enterica subsp. enterica serovar typhimurium
[5] = Cmax in CD-1 mouse brain at 5 mg/kg, ip measured up to 480 mins by LC/ESI-MS/MS analysis; assay type: ADME, organism-based; parameters: dose 5 mg/kg, route intraperitoneal
[6] = target: Beta-1 adrenergic receptor (Homo sapiens) (UniProt P08588); assay: Displacement of [3H](-)CGP 12177 from recombinant human beta1 receptor at 10 uM after 60 mins by radiometric scintillation analysis relative to control
[7] = target: Neuropeptide Y receptor type 2 (Homo sapiens) (UniProt P49146); assay: Displacement of [125I]peptide YY from human Y2 receptor at 10 uM after 60 mins by radiometric scintillation analysis relative to control
[8] = target: L-type calcium channel (verapamil binding site) (Homo sapiens, UniProt O60840+Q01668+Q13698+Q13936); assay: Displacement of [3H] Diltiazem from human L-type calcium channel verapamil binding site at 10 uM after 20 hrs by scintillation analysis relative to control; assay type: protein assay; conditions: probe [3H] Diltiazem
[9] = target: Type-1 angiotensin II receptor (Homo sapiens) (UniProt P30556); assay: Displacement of [125I][Sar1,Ile8]-AT-II from recombinant human AT1 receptor at 10 uM after 120 mins by radiometric scintillation analysis relative to control
[10] = target: 5-hydroxytryptamine receptor 1B (Homo sapiens) (UniProt P28222); assay: Displacement of [3H]GR125743 from recombinant human 5-HT1B receptor at 10 uM after 60 mins by radiometric scintillation analysis relative to control
[11] = target: D(2) dopamine receptor (Homo sapiens) (UniProt P14416); assay: Displacement of [3H]methyl-spiperone from recombinant human D2S dopamine receptor at 10 uM after 60 mins by radiometric scintillation analysis relative to control
[12] = Mutagenicity in Salmonella typhimurium TA102 at 250 ug/plate preincubated for 20 mins followed by addition of top agar and measured after 48 hrs by Ames test; assay type: toxicity; conditions: salmonella enterica subsp. enterica serovar typhimurium
[13] = target: Neuromedin-K receptor (Homo sapiens) (UniProt P29371); assay: Displacement of [3H]SR 142801 from recombinant human NK3 receptor at 10 uM after 120 mins by radiometric scintillation analysis relative to control
[14] = Terminal half life in CD-1 mouse brain at 5 mg/kg, ip measured up to 480 mins by LC/ESI-MS/MS analysis; assay type: ADME, organism-based; conditions: read-out: beta t1/2
[15] = target: 5-hydroxytryptamine receptor 6 (Homo sapiens) (UniProt P50406); assay: Displacement of [3H]LSD from recombinant human 5-HT6 receptor at 10 uM after 120 mins by radiometric scintillation analysis relative to control
[16] = target: Sodium-dependent dopamine transporter (Homo sapiens) (UniProt Q01959); assay: Displacement of [3H]BTCP recombinant human dopamine transporter at 10 uM after 120 mins by radiometric scintillation analysis relative to control
Chain of Sodium-dependent dopamine transporter (Homo sapiens) (Q01959 whole entry): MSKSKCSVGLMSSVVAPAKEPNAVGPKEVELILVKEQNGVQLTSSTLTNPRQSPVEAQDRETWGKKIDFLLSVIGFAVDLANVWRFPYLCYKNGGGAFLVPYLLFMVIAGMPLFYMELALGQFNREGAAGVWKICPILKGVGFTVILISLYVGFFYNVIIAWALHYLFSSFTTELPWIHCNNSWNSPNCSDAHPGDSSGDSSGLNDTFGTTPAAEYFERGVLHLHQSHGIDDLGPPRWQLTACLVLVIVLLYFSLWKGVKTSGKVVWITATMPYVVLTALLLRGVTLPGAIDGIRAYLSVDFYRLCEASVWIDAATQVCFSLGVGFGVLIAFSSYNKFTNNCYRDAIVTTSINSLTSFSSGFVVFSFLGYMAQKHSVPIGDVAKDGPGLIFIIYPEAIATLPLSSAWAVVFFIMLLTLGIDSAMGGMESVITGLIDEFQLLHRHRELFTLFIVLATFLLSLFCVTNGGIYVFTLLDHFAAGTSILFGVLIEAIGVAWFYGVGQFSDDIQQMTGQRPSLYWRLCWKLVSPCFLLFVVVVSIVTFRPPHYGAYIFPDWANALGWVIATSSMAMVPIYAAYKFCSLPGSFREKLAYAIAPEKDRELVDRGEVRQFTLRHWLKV

Chain of Prostaglandin E2 receptor EP4 subtype (Homo sapiens) (P35408 whole entry): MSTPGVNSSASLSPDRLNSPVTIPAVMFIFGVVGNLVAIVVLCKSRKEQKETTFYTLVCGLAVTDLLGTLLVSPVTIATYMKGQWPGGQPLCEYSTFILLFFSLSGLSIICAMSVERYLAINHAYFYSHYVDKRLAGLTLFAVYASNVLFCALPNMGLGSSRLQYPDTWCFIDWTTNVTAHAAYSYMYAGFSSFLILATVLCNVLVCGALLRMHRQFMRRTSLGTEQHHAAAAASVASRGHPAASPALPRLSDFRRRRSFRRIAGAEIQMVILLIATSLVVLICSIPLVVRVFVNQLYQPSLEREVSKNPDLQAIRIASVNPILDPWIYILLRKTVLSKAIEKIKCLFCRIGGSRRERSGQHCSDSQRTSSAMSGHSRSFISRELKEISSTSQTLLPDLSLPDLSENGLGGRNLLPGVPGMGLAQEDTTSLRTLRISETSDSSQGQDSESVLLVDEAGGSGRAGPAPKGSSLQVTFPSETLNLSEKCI
Chain of Muscarinic acetylcholine receptor M2 (Homo sapiens) (P08172 whole entry): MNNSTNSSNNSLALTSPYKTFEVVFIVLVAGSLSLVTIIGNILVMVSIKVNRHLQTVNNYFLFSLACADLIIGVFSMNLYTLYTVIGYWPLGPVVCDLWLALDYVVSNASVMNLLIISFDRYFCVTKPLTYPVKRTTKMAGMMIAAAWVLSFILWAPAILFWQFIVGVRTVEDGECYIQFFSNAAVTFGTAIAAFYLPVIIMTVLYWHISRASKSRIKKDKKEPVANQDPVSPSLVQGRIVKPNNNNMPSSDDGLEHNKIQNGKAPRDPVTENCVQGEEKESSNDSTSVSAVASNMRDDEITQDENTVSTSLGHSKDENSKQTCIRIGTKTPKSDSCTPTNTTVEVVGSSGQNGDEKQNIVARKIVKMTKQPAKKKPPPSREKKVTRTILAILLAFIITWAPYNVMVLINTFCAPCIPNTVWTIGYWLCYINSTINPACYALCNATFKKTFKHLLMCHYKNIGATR
Chain of D(2) dopamine receptor (Homo sapiens) (P14416 whole entry): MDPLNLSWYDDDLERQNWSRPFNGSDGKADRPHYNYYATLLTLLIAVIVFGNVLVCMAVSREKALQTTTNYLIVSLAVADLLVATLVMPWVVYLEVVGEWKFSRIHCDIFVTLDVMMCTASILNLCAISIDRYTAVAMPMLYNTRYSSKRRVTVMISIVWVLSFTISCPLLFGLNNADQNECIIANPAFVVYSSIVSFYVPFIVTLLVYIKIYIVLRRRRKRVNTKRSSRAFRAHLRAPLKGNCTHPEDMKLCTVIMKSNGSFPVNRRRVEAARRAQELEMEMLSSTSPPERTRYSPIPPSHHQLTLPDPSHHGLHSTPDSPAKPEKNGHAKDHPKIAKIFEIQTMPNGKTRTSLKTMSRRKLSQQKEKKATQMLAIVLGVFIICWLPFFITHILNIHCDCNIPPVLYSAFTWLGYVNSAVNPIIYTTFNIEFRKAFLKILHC
Chain of 5-hydroxytryptamine receptor 6 (Homo sapiens) (P50406 whole entry): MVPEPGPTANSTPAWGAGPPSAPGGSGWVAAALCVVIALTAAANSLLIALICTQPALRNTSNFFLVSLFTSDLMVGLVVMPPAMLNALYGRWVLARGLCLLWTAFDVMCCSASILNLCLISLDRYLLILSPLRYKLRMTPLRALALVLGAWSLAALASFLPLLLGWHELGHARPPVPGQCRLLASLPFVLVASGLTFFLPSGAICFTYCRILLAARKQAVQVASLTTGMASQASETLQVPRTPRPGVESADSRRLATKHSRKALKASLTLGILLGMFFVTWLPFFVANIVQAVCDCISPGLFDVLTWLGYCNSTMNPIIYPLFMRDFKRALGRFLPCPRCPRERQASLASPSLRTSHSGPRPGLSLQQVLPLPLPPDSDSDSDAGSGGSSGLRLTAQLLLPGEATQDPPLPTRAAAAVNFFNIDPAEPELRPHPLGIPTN
Chain of 5-hydroxytryptamine receptor 1B (Homo sapiens) (P28222 whole entry): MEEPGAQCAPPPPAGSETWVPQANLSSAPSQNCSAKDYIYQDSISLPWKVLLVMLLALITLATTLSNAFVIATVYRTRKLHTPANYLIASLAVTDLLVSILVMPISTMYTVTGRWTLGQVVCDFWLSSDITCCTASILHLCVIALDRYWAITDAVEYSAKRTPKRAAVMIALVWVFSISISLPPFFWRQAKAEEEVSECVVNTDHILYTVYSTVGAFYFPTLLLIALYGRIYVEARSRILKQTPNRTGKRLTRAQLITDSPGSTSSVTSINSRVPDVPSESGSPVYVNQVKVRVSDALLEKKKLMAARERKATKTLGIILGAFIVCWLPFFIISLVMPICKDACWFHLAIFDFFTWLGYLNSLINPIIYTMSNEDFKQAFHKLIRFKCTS
Chain of Beta-1 adrenergic receptor (Homo sapiens) (P08588 whole entry, looked up): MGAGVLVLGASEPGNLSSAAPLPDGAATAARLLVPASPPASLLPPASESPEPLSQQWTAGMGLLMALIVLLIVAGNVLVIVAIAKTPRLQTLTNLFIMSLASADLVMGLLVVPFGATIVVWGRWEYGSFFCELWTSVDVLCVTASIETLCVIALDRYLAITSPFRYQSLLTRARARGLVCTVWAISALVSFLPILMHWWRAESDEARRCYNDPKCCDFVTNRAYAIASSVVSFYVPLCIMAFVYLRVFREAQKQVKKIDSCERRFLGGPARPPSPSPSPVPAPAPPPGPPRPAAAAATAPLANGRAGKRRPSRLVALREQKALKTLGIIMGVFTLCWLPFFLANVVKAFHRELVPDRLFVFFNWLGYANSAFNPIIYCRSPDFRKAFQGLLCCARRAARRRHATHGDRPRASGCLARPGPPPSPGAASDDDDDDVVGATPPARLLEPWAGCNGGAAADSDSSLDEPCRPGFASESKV
Chain of Neuropeptide Y receptor type 2 (Homo sapiens) (P49146 whole entry): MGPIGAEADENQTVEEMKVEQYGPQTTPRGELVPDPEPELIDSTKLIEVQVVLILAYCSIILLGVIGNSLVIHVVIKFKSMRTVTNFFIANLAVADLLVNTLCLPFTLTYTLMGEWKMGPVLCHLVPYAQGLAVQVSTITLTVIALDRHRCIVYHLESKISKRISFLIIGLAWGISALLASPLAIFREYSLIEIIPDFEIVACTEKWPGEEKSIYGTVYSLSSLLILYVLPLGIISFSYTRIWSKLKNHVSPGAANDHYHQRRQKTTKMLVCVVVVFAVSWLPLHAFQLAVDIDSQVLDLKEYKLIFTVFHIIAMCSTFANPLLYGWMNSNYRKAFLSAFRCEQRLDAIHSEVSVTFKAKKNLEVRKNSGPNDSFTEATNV
Chain of Neuromedin-K receptor (Homo sapiens) (P29371 whole entry): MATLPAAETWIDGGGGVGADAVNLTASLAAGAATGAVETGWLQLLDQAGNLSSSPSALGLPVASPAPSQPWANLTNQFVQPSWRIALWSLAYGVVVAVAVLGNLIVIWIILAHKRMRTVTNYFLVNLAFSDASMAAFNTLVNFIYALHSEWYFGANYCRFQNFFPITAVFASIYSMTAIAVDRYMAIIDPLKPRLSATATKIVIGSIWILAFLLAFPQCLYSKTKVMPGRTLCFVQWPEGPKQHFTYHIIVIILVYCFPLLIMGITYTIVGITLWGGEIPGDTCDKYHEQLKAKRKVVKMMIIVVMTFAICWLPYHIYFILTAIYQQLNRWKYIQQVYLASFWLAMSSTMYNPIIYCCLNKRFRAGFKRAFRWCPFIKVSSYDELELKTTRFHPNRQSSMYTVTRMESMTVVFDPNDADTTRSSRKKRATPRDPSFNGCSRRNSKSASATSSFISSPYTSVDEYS
Chain of Type-1 angiotensin II receptor (Homo sapiens) (P30556 whole entry): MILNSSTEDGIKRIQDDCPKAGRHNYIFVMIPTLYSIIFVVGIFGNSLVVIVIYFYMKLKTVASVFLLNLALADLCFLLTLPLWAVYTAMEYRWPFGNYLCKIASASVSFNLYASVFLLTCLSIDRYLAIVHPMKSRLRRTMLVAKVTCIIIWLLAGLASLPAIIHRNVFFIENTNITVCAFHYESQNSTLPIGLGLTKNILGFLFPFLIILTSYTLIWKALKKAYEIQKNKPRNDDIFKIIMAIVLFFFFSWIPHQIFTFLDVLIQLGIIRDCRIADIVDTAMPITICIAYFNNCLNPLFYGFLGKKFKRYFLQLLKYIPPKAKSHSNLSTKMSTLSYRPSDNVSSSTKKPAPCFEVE

Cl.Cl.O=c1c2cc(Cl)ccc2oc2ccc(CN3CCN(CCOCCO)CC3)cc12 gave an inhibition [1] of 35.9%, an inhibition [2] of 10.9% and an inhibition [3] of 8.5%. The Activity_index [4] was 0.45, the Cmax [5] was 18600 ng/mL and the inhibition [6] was 2.3%. It also gave an inhibition [7] of 3.1%, an inhibition at 20 h, 10 µM [8] of 42.2% and an inhibition [9] of 8.4%. For the same compound, the inhibition [10] was 32.7%, the inhibition [11] was 27.4% and the Activity_index [12] was 1.28. The inhibition [13] was 3.2%, the half-life [14] was 2.88 h and the inhibition [15] was 2.5%. For the same compound, the inhibition [16] was 28.7%.

Reference: ChEMBL document CHEMBL4364344, “Design, synthesis and evaluation of activity and pharmacokinetic profile of new derivatives of xanthone and piperazine in the central nervous system” (Bioorg Med Chem Lett, 2019)
